What was measured:
[1] = target: T1, human GOAT (Homo sapiens, UniProt Q96T53); experiment: In vitro cell free human GOAT enzymatic assay; format: biochemical; conditions: GOAT-His/sf9 microsomal membrane enzyme preparation; ELISA of acyl-ghrelin; n=5
T1 construct: His; made in house; host or cells: Sf9 insect cells (baculovirus, pAN51 vector); used as microsomal membrane preparation
T1 sequence (Q96T53 1-435): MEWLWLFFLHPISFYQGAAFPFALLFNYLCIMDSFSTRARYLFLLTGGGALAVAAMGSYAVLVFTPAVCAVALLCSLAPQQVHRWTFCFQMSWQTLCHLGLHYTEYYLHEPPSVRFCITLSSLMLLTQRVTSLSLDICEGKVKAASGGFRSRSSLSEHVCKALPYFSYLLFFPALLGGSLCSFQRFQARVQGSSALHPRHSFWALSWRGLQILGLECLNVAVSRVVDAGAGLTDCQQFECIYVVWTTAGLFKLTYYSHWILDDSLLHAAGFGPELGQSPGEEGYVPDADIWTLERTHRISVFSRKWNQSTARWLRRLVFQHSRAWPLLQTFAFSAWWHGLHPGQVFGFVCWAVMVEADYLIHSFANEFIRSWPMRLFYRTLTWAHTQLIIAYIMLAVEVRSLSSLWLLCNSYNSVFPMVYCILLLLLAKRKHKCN
Experimental: Human GOAT gene (Accession number: NM_001100916) is subcloned to pAN51 baculoviral expression vector. Baculovirus stock is prepared following the Bac-to-Bac Protocol provided by the vendor, Invitrogen, California, USA. Five milliliters of human GOAT baculoviral stock are added to 500 mL Sf9 cells in HyQ SFX-Insect™ media (HyClone catalog number SH30278.02) at the density of 1×10^6 cells per milliliter in a 2 L Erlenmeyer flask. The flask with human GOAT gene infected Sf9 cells is put on a plate shaker at 120 rpm at 28° C. for 48 h. After 48 h incubation, cells are centrifuged at 1,000×g for 10 min at 4° C. The cell pellets are collected and stored at −80° C. in a freezer until ready for further processing.
One gram cell pellets are suspended in 9 mL chilled homogenization buffer (50 mM Tris-HCl, 250 mM sucrose, adjusted to pH 7.5, and sterile filtered through 0.2 μm Millipore filter). The cell suspension is transferred to a Dounce glass homogenizer. Cell pellets are homogenized with 40 strokes on ice. The homogenate is centrifuged at 3,000 rpm in a Beckman swing bucket rotor at 4° C. for 10 min to remove unbroken cells. […]
Prepare ELISA plates (STREPTAVIDIN SPECTRAPLATE™ 384, Perkin Elmer) by blocking with 2% Heat-Inactivated FBS in PBS (40 μL) (Invitrogen) blocking buffer for 3 h. […] Read plates at 450 nm using an Envision Multilabel plate reader. […]

[2] = target: T2, GOAT enzyme (Mus musculus, UniProt P0C7A3); experiment: In vivo dose dependent 3 day BID study for GOAT inhibitor (plasma AG and UAG by ELISA); design: species or system male C57BL/6 mice; conditions: 3 days; for AG (% of control) / AG/Total-ghrelin (% of vehicle control) / UAG (% of vehicle control) / increase of UAG: plasma; for increase of UAG / decrease of plasma AG: vs vehicle; for reduction in AG to total ghrelin ratio: vs vehicle-treated control animals
T2 construct: endogenous in cells; host or cells: male C57BL/6 mice (whole animal, oral dosing; plasma AG/UAG read-out)
T2 sequence (P0C7A3 1-435): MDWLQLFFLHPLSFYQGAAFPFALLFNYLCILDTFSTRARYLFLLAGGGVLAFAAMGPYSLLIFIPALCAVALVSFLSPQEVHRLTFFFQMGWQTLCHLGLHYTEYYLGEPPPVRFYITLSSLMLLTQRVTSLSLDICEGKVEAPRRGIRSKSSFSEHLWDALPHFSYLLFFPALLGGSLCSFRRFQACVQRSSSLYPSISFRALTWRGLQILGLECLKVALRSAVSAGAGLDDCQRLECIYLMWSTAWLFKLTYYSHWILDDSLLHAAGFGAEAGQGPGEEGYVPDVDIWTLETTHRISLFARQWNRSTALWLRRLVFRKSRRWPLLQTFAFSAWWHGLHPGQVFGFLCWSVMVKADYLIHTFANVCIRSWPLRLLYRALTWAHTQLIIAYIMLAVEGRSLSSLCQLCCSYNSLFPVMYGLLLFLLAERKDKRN
Experimental: Comparing the change in the ratio of AG to total ghrelin in the compound treated group and that of the vehicle treated group reflects the degree of GOAT enzyme inhibition in vivo, due to the dynamic processing of UAG to AG by the GOAT enzyme. In the in vivo pharmacodynamic studies herein, the levels of AG and UAG in plasma and stomach in the vehicle and compound treated groups are measured by ELISA specifically to these two analytes. The total ghrelin level of each sample is computed as the sum of AG and UAG by these ELISA measurements. The ratio of AG to total ghrelin is defined by the level of AG in each sample divided by the level of total ghrelin in the same sample. The levels of AG, UAG and ratio of AG to total ghrelin in the vehicle treated group is computed and set as 100%. The relative change of these parameters in the compound treated group is then computed to determine the effectiveness of the test compound.
Purchase male C57BL/6 mice from Harlan (Indianapolis, Ind.) at 9 weeks of age. House the mice individually in a temperature-controlled (24° C.) facility with a 12 h light/dark cycle (lights on 2200 h), and allow free access to a standard rodent chow (diet 2014, Harlan) and water. Typically, use the mice when they are 10-13 weeks of age at the time of the study. On day 0 of the experiment, randomize the mice into treatment groups (N=7/group) so each group has similar mean body weights. On day 1 and day 2, treat the animals with vehicle (1% hydroxyethylcellulose, 0.25% Tween 80, 0.05% antifoam) or test compound prepared in the vehicle as suspension at various dosages by oral gavage at 7 am and 7 pm. On day 3, fast the animals, move them into clean cages and dose with vehicle or the test compound again at 8 am by oral gavage. That same day at 1 pm, sacrifice the animals by decapitation to collect blood. For details of blood collection and plasma treatments see Blood collection and Extraction of Ghrelin from Plasma section below.
Collect approximately 600 μL blood into a pre-weighed EDTA tube containing 600 μL (defined as Vpreservative) freshly-prepared preservative (4 mM PEFABLOC® [4-(2-aminoethyl) benzenesulfonyl fluoride hydrochloride], 72 mM NaCl, 58 mM NaF, 0.032 N hydrochloric acid, pH 3.0) and mix immediately. Weigh the tube again and keep on ice. To accurately determine the exact blood volume of each sample using this blood collection procedure, the weight of the blood for each mouse is computed using the following equation: Weight of Blood=(Weight of the tube containing Blood+preservative)−(Weight of the tube containing preservative) Blood volume(Vblood)=(Weight of blood)/1.06
Within 15 minutes after the blood collection, samples are centrifuged at 5000 rpm at 4° C. for 8 min Remove plasma (650 μL) to a 5 mL glass tube containing 1 N hydrochloric acid (65 μL), mix and keep on ice.
AG and UAG are extracted from plasma using SEP-PAK®_C18 column to remove interference prior to performing the ELISA. The solid phase extraction of AG and UAG peptides by SEP-PAK®_C18 columns can be performed on a vacuum manifold (Waters Corp) or using a peristaltic pump. The sample SEP-PAK®_column extraction procedure is independently applied to the plasma sample obtained from each individual mouse. The general extraction protocol is described as follows.
All solutions used for the entire protocol of the SEP-PAK® column extraction should be at ice cold condition. Wet SEP-PAK®_columns (WAT054960, Waters Corp, Milford Mass.) with 99.9% ACN/0.1% TFA (1 mL of solution of 100 mL ACN/0.1 mL TFA). […] Once liquid is removed from the column, stop the pressure. Equilibrate the columns with 3% ACN/0.1% TFA (1 mL of 97 mL water, 3 mL ACN, 0.1 mL TFA). […] Dilute approximately 650 μL acidified plasma (defined as Vplasma added to column) to 1.4 mL ice cold 0.1% TFA. Load all diluted acidified plasma from the previous step onto the columns. […] Wash with 3% ACN/0.1% TFA (0.9 mL of 97 mL water, 3 mL ACN, 0.1 mL TFA). […] Repeat the wash two more times. […]

IC50 [1]: ~192 nM
AG (% of control) ([2]; 0.3 mg/kg oral gavage BID): 101 ± 025 % of control
AG/Total-ghrelin (% of vehicle control) ([2]; 0.3 mg/kg oral gavage BID): 61 ± 04 % of vehicle control
UAG (% of vehicle control) ([2]; 0.3 mg/kg oral gavage BID): 224 ± 035 % of vehicle control
increase of UAG ([2]; 0.3 mg/kg oral gavage BID): 2.24 fold
decrease of plasma AG ([2]; 0.3 mg/kg oral gavage BID): −1%
reduction in AG to total ghrelin ratio ([2]; 0.3 mg/kg oral gavage BID): 39%
AG (% of control) ([2]; 1 mg/kg oral gavage BID): 95 ± 018 % of control
AG/Total-ghrelin (% of vehicle control) ([2]; 1 mg/kg oral gavage BID): 46 ± 011 % of vehicle control
UAG (% of vehicle control) ([2]; 1 mg/kg oral gavage BID): 282 ± 045 % of vehicle control
increase of UAG ([2]; 1 mg/kg oral gavage BID): 2.82 fold
decrease of plasma AG ([2]; 1 mg/kg oral gavage BID): 5%
reduction in AG to total ghrelin ratio ([2]; 1 mg/kg oral gavage BID): 54%
AG (% of control) ([2]; 3 mg/kg oral gavage BID): 55 ± 06 % of control
AG/Total-ghrelin (% of vehicle control) ([2]; 3 mg/kg oral gavage BID): 29 ± 04 % of vehicle control
UAG (% of vehicle control) ([2]; 3 mg/kg oral gavage BID): 253 ± 031 % of vehicle control
increase of UAG ([2]; 3 mg/kg oral gavage BID): 2.53 fold
decrease of plasma AG ([2]; 3 mg/kg oral gavage BID): 45%
reduction in AG to total ghrelin ratio ([2]; 3 mg/kg oral gavage BID): 71%
AG (% of control) ([2]; 10 mg/kg oral gavage BID): 52 ± 010 % of control
AG/Total-ghrelin (% of vehicle control) ([2]; 10 mg/kg oral gavage BID): 23 ± 04 % of vehicle control
UAG (% of vehicle control) ([2]; 10 mg/kg oral gavage BID): 289 ± 044 % of vehicle control
increase of UAG ([2]; 10 mg/kg oral gavage BID): 2.89 fold
decrease of plasma AG ([2]; 10 mg/kg oral gavage BID): 48%
reduction in AG to total ghrelin ratio ([2]; 10 mg/kg oral gavage BID): 77%
Compound: Cc1nc(N)c(CCC2CCN(C(=O)[C@H](C)NC(=O)C3CC3)CC2)c(Cl)n1 [Example 1, N-[(1S)-2-[4-[2-(4-Amino-6-chloro-2-methyl-pyrimidin-5-yl)ethyl]-1-piperidyl]-1-methyl-2-oxo-ethyl]cyclopropanecarboxamide]

— US9035051B1, “Ghrelin O-acyl transferase inhibitor” (Eli Lilly and Company, priority 2013, dated 2015)
